Test results taken from the supplement of paper PMC11061612.

How the values were obtained:
Assay in all cases: Bliss excess, mean over the matrix (fraction); higher = more synergy
[1] = system: SW1710 (Bladder Carcinoma)
How it was run: (§1)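 After 24 hours at 37°C and 5% CO2 in 1536-well plates, cells in DMEM/F12 or RPMI plus 10% FBS received two-drug dose matrices for 72 hours. Viability came from CellTiter-Glo 2.0 luminescence and was scaled as inhibition, anchored at 0 by vehicle wells and at 1 by blank wells. Combination Emax is taken as the second-highest inhibition in the matrix, and Bliss excess as the observed combination effect less EA + EB − EA·EB, with EA and EB the single-agent effects.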

[2] = system: SW1573 (Lung Adenocarcinoma)
How it was run: as §1

[3] = system: BFTC-909 (Kidney Carcinoma)
How it was run: as §1

[4] = system: KMRC-20 (Kidney Carcinoma)
How it was run: as §1

[5] = system: TGBC1TKB (Biliary Tract Carcinoma)
How it was run: as §1

[6] = system: LNZTA3WT4 (Low Grade Glioma)
How it was run: as §1

[7] = system: FTC-133 (Thyroid Gland Carcinoma)
How it was run: as §1

[8] = system: KYAE-1 (Esophageal Adenocarcinoma)
How it was run: as §1

[9] = system: OE21 (Esophageal Squamous Cell Carcinoma)
How it was run: as §1

[10] = system: SNU-449 (Hepatocellular Carcinoma)
How it was run: as §1

[11] = system: SNU-16 (Gastric Carcinoma)
How it was run: as §1

[12] = system: HuH-7 (Hepatocellular Carcinoma)
How it was run: as §1

[13] = system: NCI-H2052 (Mesothelioma)
How it was run: as §1

[14] = system: HH (T-Cell Non-Hodgkin's Lymphoma)
How it was run: as §1

[15] = system: HuCCT1 (Biliary Tract Carcinoma)
How it was run: as §1

[16] = system: YAPC (Pancreatic Carcinoma)
How it was run: as §1

[17] = system: BPH-1 (Non-Cancerous)
How it was run: as §1

[18] = system: OV-56 (Ovarian Carcinoma)
How it was run: as §1

[19] = system: NCI-H209 (Small Cell Lung Carcinoma)
How it was run: as §1

[20] = system: LOXIMVI (Melanoma)
How it was run: as §1

Row | SMILES | Bliss excess [1] | Bliss excess [2] | Bliss excess [3] | Bliss excess [4] | Bliss excess [5] | Bliss excess [6] | Bliss excess [7] | Bliss excess [8] | Bliss excess [9] | Bliss excess [10] | Bliss excess [11] | Bliss excess [12] | Bliss excess [13] | Bliss excess [14] | Bliss excess [15] | Bliss excess [16] | Bliss excess [17] | Bliss excess [18] | Bliss excess [19] | Bliss excess [20]
1 | CN(CCO)CC[C@H](CSc1ccccc1)Nc1ccc(S(=O)(=O)NC(=O)c2ccc(N3CCC([C@@H](O)c4ccccc4-c4ccc(Cl)cc4)CC3)cc2)cc1S(=O)(=O)C(F)(F)F [AZD4320] + Cc1cc2ncnn2cc1Nc1ncc2c(n1)n(C1CCOCC1)c(=O)n2C [AZD7648] (first compound max 1 µM, 7x7, partner max 10 µM) | -0.058 | -0.0592 | -0.0094 | -0.0393 | -0.0343 | -0.0358 | -0.0097 | -0.0461 | -0.0187 | -0.0811 | 0.0237 | 0.004 | -0.0451 | -0.0459 | -0.0407 | -0.0465 | -0.0325 | -0.0109 | 0.0477 | 0.023
2 | C[C@@H](c1ccc2nccn2c1)n1nnc2ncc(-c3cnn(C)c3)nc21 [Savolitinib] + Cc1c2c(nn1C)CSCc1cc(n(C)n1)CSc1cc(c3ccccc3c1)OCCCc1c(C(=O)O)n(C)c3c-2c(Cl)ccc13 [AZD5991] (first compound max 1 µM, 7x7, partner max 1 µM) | -0.0351 | -0.0475 | -0.0074 | -0.0733 | -0.0238 | -0.0247 | -0.0511 | 0.0163 | -0.0479 | -0.0432 | -0.047 | -0.0276 | -0.0419 | -0.0258 | -0.0556 | -0.0425 | -0.0457 | -0.0547 | -0.0187 | -0.0096
3 | Cc1cc2ncnn2cc1Nc1ncc2c(n1)n(C1CCOCC1)c(=O)n2C [AZD7648] + C=CCn1c(=O)c2cnc(Nc3ccc(N4CCN(C)CC4)cc3)nc2n1-c1cccc(C(C)(C)O)n1 [AZD1775] (first compound max 10 µM, partner max 1 µM) | 0.0692 | -0.0452 | 0.0097 | -0.0164 | -0.0362 | -0.0049 | 0.0069 | -0.048 | -0.0013 | 0.0041 | -0.0345 | 0.0039 | -0.0039 | -0.0461 | 0.0065 | 0.0325 | 0.0321 | 0.0602 | -0.0177 | -0.0123
